From PubChem BioAssay (NCI)
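Cells were grown in 96-well plates and exposed to each compound for 48 hours at five concentrations; endpoints were interpolated linearly between bracketing concentrations, or set to the highest concentration if not reached. GI50 is the concentration that inhibits growth by half. TGI is the concentration that stops growth completely.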

Tests used:
Test in all cases: NCI-60 cell line screen, 48 h
[1] = tested on: A549 NSCLC
[2] = tested on: BT-549 breast
[3] = tested on: HCC-2998 colon
[4] = tested on: HOP-92 NSCLC
[5] = tested on: KM12 colon
[6] = tested on: SK-OV-3 ovarian
[7] = tested on: SNB-19 CNS
[8] = tested on: SW-620 colon
[9] = tested on: HS 578T breast
[10] = tested on: SK-MEL-5 melanoma

SMILES	TGI [1]	TGI [2]	TGI [3]	TGI [4]	TGI [5]	TGI [6]	TGI [7]	TGI [8]	GI50 [1]	GI50 [2]	GI50 [3]	GI50 [4]	GI50 [9]	TGI [9]	GI50 [5]	GI50 [10]	TGI [10]	GI50 [6]	GI50 [7]	GI50 [8]
CCN1CCN(c2nc3ccccc3nc2C(=O)c2ccc(OC)c(OC)c2)CC1	28.3 µM	65.6 µM	9.71 µM	70.2 µM	53.2 µM	24.5 µM	88.2 µM	> 100 µM												
CC1C(=O)c2cc3c(cc2CCN(C)Cc2c1ccc1c2OCO1)OCO3 (stereo unspecified)	> 75 µg/mL	> 75 µg/mL	33.5 µg/mL	> 75 µg/mL	> 75 µg/mL	> 75 µg/mL	> 75 µg/mL	> 75 µg/mL	> 75 µg/mL	59 µg/mL	14.1 µg/mL	> 75 µg/mL	> 75 µg/mL	> 75 µg/mL	59 µg/mL	37.1 µg/mL	> 75 µg/mL	> 75 µg/mL	> 75 µg/mL	> 75 µg/mL
O=C1/C(=C/c2[nH]ncc2-c2ccc(Cl)cc2)C(=O)N(c2ccccc2)C1c1ccccc1 (stereo unspecified)	> 100 µM	43.7 µM		76 µM	79.5 µM	56.3 µM	> 100 µM	45.2 µM						24.2 µM			27.5 µM			
Clc1ccc(Nc2nc(Nc3ccccc3)nc(Nc3ccc(-c4cc(-c5ccc(Cl)cc5)on4)cc3)n2)cc1	> 100 µM	> 100 µM	> 100 µM	20 µM	52.4 µM	> 100 µM	> 100 µM	> 100 µM	19.2 µM	32.9 µM	29.1 µM	1.93 µM	11.4 µM	> 100 µM	13.5 µM	24 µM	> 100 µM	29 µM	45.6 µM	26.4 µM
COc1cccc(/C=N/[N-]C(N)=O)c1[O-].[Ni+2].[OH3+]	2.27 µM		1.02 µM	0.934 µM	0.91 µM	1.69 µM	1.99 µM	0.371 µM									1.65 µM			0.135 µM
CN(C)C(=O)OC1=CC2CCC(C1)N2C (stereo unspecified)	> 100 µM	> 100 µM		> 100 µM	> 100 µM	> 100 µM	> 100 µM	> 100 µM						> 100 µM			> 100 µM			
COc1cc(C2c3cc4c(cc3[C@@H](Nc3ccc(Oc5ccccc5)cc3)C3COC(=O)[C@H]23)OCO4)cc(OC)c1O (stereo partly specified)	> 39.5 µM		13.8 µM		> 100 µM	> 52 µM	> 100 µM	> 100 µM									5.99 µM			
CC1=C[C@@H](C)C[C@]2(C)CC[C@H](O2)[C@]23CC[C@](CO)(C[C@H](O2)[C@@H]2O[C@@](C)(CC2=O)[C@@H](O)[C@H]2CC[C@@]4(CCC[C@@H](O4)[C@H](C)C(=O)O[C@H]4C[C@H]([C@]5(O)OCC[C@H](C)[C@@H]5O)O[C@H]4C=C1)O2)O3	> 10 µM	0.258 µM	> 10 µM	0.00697 µM	> 10 µM	0.159 µM		> 10 µM						0.00776 µM			> 10 µM			
O=C(CC(c1ccccc1)C1C(=O)NC(=S)NC1=O)c1ccc([N+](=O)[O-])cc1 (stereo unspecified)	> 100 µM	> 100 µM	> 100 µM	> 100 µM	> 100 µM	> 100 µM	> 100 µM	> 100 µM						> 100 µM			> 100 µM			
O/C(=C\c1nc2ccccc2nc1/C=C(\O)c1ccc(F)cc1)c1ccc(F)cc1	> 100 µM	> 100 µM	> 100 µM	> 100 µM	> 100 µM		> 100 µM	> 100 µM						> 100 µM			> 100 µM			
CC(C)CC1c2[nH]c3ccccc3c2C[C@H]2C(=O)NC(CCCCNC(=O)OC(C)(C)C)C(=O)N12 (stereo partly specified)	> 100 µM	95.5 µM		89.8 µM	> 100 µM		> 100 µM	> 100 µM						25.6 µM			> 100 µM			
Cc1oc(N)c(S(=O)(=O)c2cc3ccccc3n(O)c2=N)c1C	> 100 µM	> 100 µM	> 100 µM	> 100 µM	> 100 µM	> 100 µM	> 100 µM	> 100 µM						> 100 µM			> 100 µM			
O=C(Nc1ccc(-n2ccc3c(NC(=O)c4ccccc4)nccc32)cc1)Nc1cccc(C(F)(F)F)c1	10.9 µM		22.4 µM	11.7 µM	11.3 µM		26.8 µM	18.9 µM	3.25 µM		7.46 µM	2.59 µM	6.39 µM	40 µM	0.41 µM	7.2 µM	20.7 µM		11.1 µM	4.96 µM
N=c1ccc2nc(N)nn(O)c-2c1	> 100 µM	> 100 µM			> 100 µM	> 100 µM	> 100 µM	> 100 µM						> 100 µM			> 100 µM			
CC1(C(=O)O)C[C@](C)(C(=O)OCc2ccccc2)C[C@](C)(C(=O)OCc2ccccc2)C1 (stereo partly specified)	> 100 µM	65.6 µM	79.8 µM	54 µM	99.5 µM	> 100 µM	> 100 µM	> 100 µM						89.8 µM			> 100 µM			
CS(C)(=O)=Nn1c(=O)n2n(c1=O)C1c3ccccc3C2c2ccccc21	> 100 µM			> 100 µM		> 100 µM	> 100 µM	> 100 µM									> 100 µM			
Nc1cc(S(=O)(=O)O)cc2ccc(S(=O)(=O)O)cc12	> 100 µM	> 100 µM	> 100 µM	> 100 µM	> 100 µM	> 100 µM	> 100 µM	> 100 µM						> 100 µM			> 100 µM			

SMILES	TGI [1]	TGI [2]	TGI [3]	TGI [4]	TGI [5]	TGI [6]	TGI [7]	TGI [8]	GI50 [1]	GI50 [2]	GI50 [3]	GI50 [4]	GI50 [9]	TGI [9]	GI50 [5]	GI50 [10]	TGI [10]	GI50 [6]	GI50 [7]	GI50 [8]
Cc1ccc2nc(-c3ccc(NC(=O)c4ccc(N)cc4)c(S(=O)(=O)O)c3)sc2c1	> 100 µM	> 100 µM	> 100 µM	> 100 µM	> 100 µM	> 100 µM	> 100 µM	> 100 µM						> 100 µM			> 100 µM			
N#Cc1ccccc1C#C/C=C\C#Cc1ccccc1N	> 100 µM	> 28.2 µM	4.11 µM	> 78.2 µM	> 51.3 µM	> 100 µM	> 100 µM	> 100 µM	6.95 µM	8.39 µM	0.808 µM	2.45 µM	5.29 µM	> 25.5 µM	2.55 µM	3.34 µM	19 µM	3.22 µM	7.17 µM	3.76 µM
Cn1c2[n+](c3nc(N)[nH]c(=O)c31)C1OC(C2)C(O)C1O (stereo unspecified)	> 100 µM		> 100 µM	> 100 µM	> 100 µM	> 100 µM	> 100 µM	> 100 µM									> 100 µM			
COc1ccc(-c2nn(-c3ccc(NC(=O)c4cc(Cl)cc(Cl)c4)cc3)cc2-c2ccncc2)cc1Cl	> 100 µM		> 100 µM		> 100 µM		> 100 µM	> 100 µM	> 100 µM		> 100 µM				4.29 µM	8.09 µM	> 100 µM		> 100 µM	> 100 µM
O=C(O)C1CCCCN1C(=O)Cc1c[nH]c2ccccc12 (stereo unspecified)	> 100 µM	> 100 µM	> 100 µM	> 100 µM	> 100 µM	> 100 µM	> 100 µM	> 100 µM												
Cc1cc2ccc(OC(=O)c3ccc(N=C(N)N)cc3)cc2oc1=O	> 100 µM	64.6 µM		> 100 µM	61.1 µM	46.4 µM	54.8 µM	78.5 µM						71.6 µM			> 100 µM			
CC(=O)Nc1ccc(C(=O)NN2C(=O)C(Cl)C2c2cccc([N+](=O)[O-])c2)cc1 (stereo unspecified)	> 100 µM		> 100 µM	> 100 µM	> 100 µM	> 100 µM	> 100 µM	> 100 µM									> 100 µM			
Cc1n[n+]([O-])c(C)cc1[N+](=O)[O-]	48.1 µM	51.5 µM	25 µM	34.3 µM		> 100 µM	> 100 µM	28.2 µM						66.9 µM			29.8 µM			
COC(=O)C1CC23C4=C(CCC41)CCC1CN4CC(C)C(CC(OC(C)=O)C12COC(C)=O)C43O (stereo unspecified)	> 100 µM	> 100 µM	> 100 µM	> 100 µM	> 100 µM	> 100 µM	> 100 µM	> 100 µM						> 100 µM			> 100 µM			
CCOC(=O)c1c(-c2cccc(Cl)c2)c(C(=O)OC)c(C)c2sc(C=O)nc12	> 100 µM	33.7 µM		34.2 µM	37.8 µM	92.2 µM	> 100 µM	> 100 µM						50.5 µM			30.4 µM			
CCOCC(=O)N(C)c1cccc2c3c(n(C)c12)CCCCC3	> 100 µM		> 100 µM	> 100 µM	> 100 µM	> 100 µM	> 100 µM	> 100 µM									> 100 µM			
OCCCSCCO	> 100 µM	> 100 µM	> 100 µM	> 100 µM	> 100 µM	> 100 µM	> 100 µM	> 100 µM						> 100 µM			> 100 µM			
CC1=CC(O)C(C(O)(C(F)(F)F)C(F)(F)F)C(C)(C)C1 (stereo unspecified)	> 10 µM	> 10 µM	> 10 µM	> 10 µM	> 10 µM	> 10 µM	> 10 µM	> 10 µM						> 10 µM			0.163 µM			
O=C(O)C(O)C(O)C(O)C(O)C(=O)O (stereo unspecified)	> 100 µM		> 100 µM	> 100 µM	> 100 µM	> 100 µM	> 100 µM	> 100 µM									> 100 µM			
COC(=O)C1=C(OC(=O)/C=C/c2ccc(Cl)cc2)C(C(=O)OC)[C@]2(O)[C@@H](C(=O)OC)[C@H]1C[C@@H](c1ccccc1)[C@@H]2C(=O)OC (stereo partly specified)	> 100 µM	> 28.5 µM	46.9 µM	7.73 µM	> 100 µM	> 100 µM	> 95.9 µM	> 100 µM						94 µM			12.7 µM			
O=C1C2Cc3c(n(C(=O)c4ccccc4)c4ccccc34)CC2C(=O)N1c1ccc(Nc2ccc(N3C(=O)C4Cc5c(n(C(=O)c6ccccc6)c6ccccc56)CC4C3=O)cc2)cc1 (stereo unspecified)	> 100 µM	> 100 µM	> 100 µM	> 100 µM	> 100 µM	> 100 µM	> 100 µM							> 100 µM			> 100 µM			
